# How the values were obtained:
# HEK293FT cells = test: HGind-H composed of two plasmids transfected into HEK293FT cells, D2eGFP fluorescence intensity after D-2-HG addition; assay type: cell-based; conditions: ratio 0.4
# Method: (3) The plasmid was transfected into HEK293FT cells with lipofectamine 3000; a transfection plasmid combination 1 was pCDNA3.1(+)-DhdR-KRAB and pCDNA3.1(+)-DhdO10-D2eGFP or a plasmid combination 2 was pCDNA3.1(+)-KRAB-DhdR and pCDNA3.1(+)-DhdO10-D2eGFP; 3*105/well of cells were seeded in a 12-well plate, pcDNA3.1(+)-DhdO10-D2eGFP was added at lug/well, and the ratio of the recombinant transcriptional repressor plasmid to PcDNA3.1(+)-DhdO10-D2eGFP was 0:1, 1:1, 3:1.
# (4) On the next day, D-2-HG was added at concentrations of 0 mM, 1 mM, 5 mM, and 10 mM; 64 h after transfection, a fluorescence microscope was used to take pictures, the supernatant was aspirated, a fluorescence microplate reader measured fluorescence intensities, and results were shown in FIG. 2.
# (1) pCDNA3.1(+)-DhdR-KRAB and pCDNA3.1(+)-DhdO10-D2eGFP were selected, and then transfected using liposomes as above; the ratio of the two plasmids was set to 0, 0.1, 0.3, 0.4, 0.5, 0.75, 1.
# (2) On the next day, D-2-HG was added at concentrations of 0 mM and 5 mM; and 64 h after transfection, a fluorescence microscopy was used to take pictures, the supernatant was aspirated, and a fluorescence microplate reader measured a fluorescence intensity. […]
# (2) On the next day, D-2-HG was added at concentrations of 0, 0.5, 1, 5, 10, and 20 mM; and a fluorescence microplate reader measured a fluorescence intensity.
# HT1080-DHDO14 tumor = test: HGind-H control of suicide gene in animals, HT1080 vs HT1080-DHDO14 tumors with GCV; assay type: in vivo, Balb/c nude crlj; conditions: GCV 50 mg/kg per day i.p.
# Method: (1) 18 Balb/c nude crlj which are male and 5 weeks old were purchased. HT1080 and HT-1080-DHDO14 cells were resuspended with PBS and injected at 1.5×10^6 cells/side*mouse (volume: 100 μl), where HT1080 was injected into the left backs of the mice and HT1080-DHDO14 was injected into the right backs of the mice.
# (2) The mice were divided into two groups, the control group (n=8) was injected with normal saline, and the experimental group (n=10) was injected with ganciclovir (GCV).
# (3) From the 5th to the 12th day of tumor model construction, each mouse in the control group was intraperitoneally injected with normal saline at 100 μl/day, and each mouse in the experimental group was intraperitoneally injected with GCV at 50 mg/kg per day. Starting from the 8th day, the long and short diameters of tumors of the mice were measured every day.
# (4) The mice were killed on the 14th day and the tumors of the mice were weighed.
SMILES,"fluorescence intensity (D2eGFP expression) (HEK293FT cells; 0.5 mM D-2-HG vs 0 mM group, pCDNA3.1(+)-DhdR-KRAB and DhdO7-D2eGFP)","fluorescence intensity (D2eGFP expression), dose response (HEK293FT cells; D-2-HG 0, 0.5, 1, 5, 10, 20 mM)",size of HT1080-DHDO14 tumor vs HT1080 tumor on the left side (HT1080-DHDO14 tumor; day 5 to 12),volume of the HT1080-DHDO14 tumor vs the other three groups (HT1080-DHDO14 tumor; later stage of measurement),weight of the HT1080-DHDO14 tumor vs the other 3 groups (HT1080-DHDO14 tumor; mice killed on the 14th day)
"O=C(O)CC[C@@H](O)C(=O)O [D-2-HG, D-2-hydroxyglutarate]",significant difference,"as the concentration increases, the fluorescence intensity becomes larger and larger",–,–,–
"Nc1nc(O)c2ncn(COC(CO)CO)c2n1 [GCV, ganciclovir]",–,–,significantly smaller,significantly less,significantly less

# From patent US20260103726A1, “CONTROL SYSTEM FOR INDUCING TRANSGENE EXPRESSION BY MEANS OF D-2-HG, AND CONSTRUCTION METHOD THEREFOR AND USES THEREOF” (priority 2023, published 2026)
